Experimental data taken from publication PMC7794297.
“And” between values parts separate entries of the source, which are not always exact repeats. Identical values can stand only once. Like-named read-outs stand apart in the source and are kept apart here.

Legend:
glucose oxidase (GOx) = glucose oxidase (GOx) (Aspergillus niger, UniProt P13006); assay: Glucose oxidase-directed DCL of building blocks 1-4; parameters: purchased Sigma Aldrich; unit not given here; conditions: blank vs GOx template DCL; GOx 57 μM, Secox 5% mol, 24 h
Description: The equilibration of the DCL was completed after 24 h (Fig. 9) and the oligomers were identified by HPLC-MS (Supplementary Figs. 4–20). The precise composition of the DCL (with and without GOx), was assessed by measuring the relative peak area (RPA). The normalized change of RPA was used to quantify the protein influence in the final DCL showing the amplification of the dimer of compound 4, that is (4)2 (Fig. 9b). Control experiments were set up to verify that the amplification of the dimer was not due to unspecific binding. Firstly the GOx was replaced by the bovine serum albumin (BSA). A stability study of BSA under the DCL conditions was performed using a fluorescence technique confirming the BSA stability in the DCL experiment (Supplementary Fig. 48)[50].
The DCL was stabilized for 24 h at 6 °C. Then, GOx was removed by ultracentrifugation through an Amicon ultra-filter (100 KDa). HPLC analysis was performed.

[1] = Spermine-templated DCL of building blocks 1-4; conditions: spermine DCL of 1-4
Description: (§1) Building blocks 2 and 3 equipped with carboxylate moieties to establish interactions with the protonated amine groups of the spermine were allowed to equilibrate at pH 7.8 and 6 °C (Fig. 8a). As expected in our control experiment, the major component in the absence of spermine was the linear tetramer (2)2(3)2. After the addition of spermine, the linear tetramer “decomposed” in order to form mainly the cyclic tetramer of (2)4, and the (3)2 dimer (Fig. 8a). As it was reported, several studies determined that the spermine was threaded through the macrocycle fixing the configuration to a highly symmetric stereoisomer of (2)4[36]. […] The precise composition of the DCL (with and without spermine), was assessed by measuring the relative peak area (RPA). Indeed, the normalized change of RPA was used to quantify the spermine influence in the outcome (Supplementary Fig. 42)[46]. The same template (spermine) was tested in our reference DCL of four building blocks (1–4) in the absence and presence of Secox (Fig. 8b). […] Additionally, two different templates were tested to confirm the absence of conflict between selenocystine and the templating effect. Spermidine and NADPH were introduced in our 4 building blocks DCL (1–4) in the absence and presence of Secox, leading to the amplification of different species and getting the same results as the non-catalyzed DCLs (Supplementary Figs. 44, 45, Supplementary Tables 7–10, and Supplementary Methods).
The mixture was stabilized in 96 h. […] The mixture was stabilized after 24 h. […] It was stabilized in 24 h. […] DCL was equilibrated in 96 h. DCLs were performed without stirring at 6 °C and analyzed by HPLC-MS.

[2] = Spermidine-templated DCL of building blocks 1-4;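 also: Spermidine-templated dynamic combinatorial library, normalized change of RPA compared between Secox-free and Secox-containing libraries, DCC runs done in triplicate, values given as mean ± SD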
[3] = target: bovine serum albumin (BSA) (Bos taurus, UniProt P02769); assay: BSA-directed DCL of building blocks 1-4; parameters: purchased Roche; key to NC of RPA: normalized change of relative peak area (RPA) vs blank DCL; conditions: blank vs BSA-DCL; BSA 57 µM, Secox 5% mol, 24 h
[4] = NADPH-templated DCL of building blocks 1-4;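 also: values are means ± SD of DCC experiments run in triplicate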
[5] = Equilibration of the thiol-disulfide DCL of building blocks 1-4 followed by HPLC-MS; conditions: 190 μM as fifth building block; Tris 20 mM pH 7.8, 6 °C; control 4 days
Description: DMSO percentage is 2.5% v/v. […] DCLs were analyzed by HPLC-MS until equilibration without stirring at 6 °C.
Control DCL. […] DMSO percentage is 2.5% v/v. Regarding Secox catalyzed DCL, different stocks of Secox were carried out in order to study the percentages of Secox. […] The DCLs were prepared at 6 °C without stirring and analyzed in several hours until the complete stabilization.

[6] = Spermine-templated DCL of building blocks 2 and 3; conditions: spermine DCL of 2 and 3
Description: as §1
The DCL was stabilized at 96 h. […] The mixture was stabilized after 24 h. […] The DCL was stabilized at 96 h. […] The DCL was analyzed in 96 h after equilibration. DCLs were performed without stirring at 6 °C and analyzed by HPLC-MS.

[7] = cited from earlier work

Sequence of glucose oxidase (GOx) (P13006 17-605): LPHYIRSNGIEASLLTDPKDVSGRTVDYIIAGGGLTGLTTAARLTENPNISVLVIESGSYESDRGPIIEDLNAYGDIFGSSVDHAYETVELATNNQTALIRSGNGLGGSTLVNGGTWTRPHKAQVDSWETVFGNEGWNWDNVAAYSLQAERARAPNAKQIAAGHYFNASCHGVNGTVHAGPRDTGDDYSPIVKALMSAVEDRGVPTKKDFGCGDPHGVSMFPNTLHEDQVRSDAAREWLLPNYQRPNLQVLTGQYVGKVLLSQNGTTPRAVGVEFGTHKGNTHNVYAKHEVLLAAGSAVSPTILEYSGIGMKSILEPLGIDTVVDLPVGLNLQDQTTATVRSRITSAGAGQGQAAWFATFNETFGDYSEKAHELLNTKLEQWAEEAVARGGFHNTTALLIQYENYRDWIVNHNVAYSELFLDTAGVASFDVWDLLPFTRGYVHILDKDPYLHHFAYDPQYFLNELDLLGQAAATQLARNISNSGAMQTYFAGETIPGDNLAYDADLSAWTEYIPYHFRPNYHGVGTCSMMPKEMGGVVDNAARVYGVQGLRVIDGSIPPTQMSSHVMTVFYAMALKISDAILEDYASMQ
Sequence of bovine serum albumin (BSA) (P02769 25-607): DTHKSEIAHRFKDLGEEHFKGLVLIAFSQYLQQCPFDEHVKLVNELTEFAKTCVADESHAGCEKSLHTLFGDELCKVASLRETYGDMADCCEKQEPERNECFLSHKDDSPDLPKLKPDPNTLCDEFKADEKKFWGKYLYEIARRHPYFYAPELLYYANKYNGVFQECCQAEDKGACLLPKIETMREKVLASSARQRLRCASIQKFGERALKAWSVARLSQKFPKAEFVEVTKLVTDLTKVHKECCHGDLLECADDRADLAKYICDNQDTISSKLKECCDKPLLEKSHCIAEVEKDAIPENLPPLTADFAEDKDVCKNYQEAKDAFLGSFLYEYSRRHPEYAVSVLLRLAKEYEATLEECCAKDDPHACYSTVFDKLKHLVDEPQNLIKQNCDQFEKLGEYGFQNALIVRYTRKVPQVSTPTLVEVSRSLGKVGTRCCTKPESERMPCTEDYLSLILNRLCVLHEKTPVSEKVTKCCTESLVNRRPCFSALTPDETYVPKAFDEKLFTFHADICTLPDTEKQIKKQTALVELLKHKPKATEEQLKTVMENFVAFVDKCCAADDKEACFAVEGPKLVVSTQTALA

With O=C(O)c1cccc(SSc2cc(C(=O)O)c(SSc3cc(C(=O)O)c(SSc4cccc(C(=O)O)c4)cc3C(=O)O)cc2C(=O)O)c1 [(2)2(3)2] the “NC of RPA” value (glucose oxidase (GOx)) was -1,00, the “Normalized Change of RPA (NC)” value ([1]; 0% Secox) was -1,00 and the “Normalized Change of RPA (NC)” value ([1]; 5% Secox) was -1,00. For the same compound, the “Normalized Change of RPA (NC)” value ([2]; 0% Secox) was -1,00, the “Normalized Change of RPA (NC)” value ([2]; 5% Secox) was -1,00 and the “NC of RPA” value [3] was -1,00. For the same compound, the “Normalized Change of RPA (NC)” value ([4]; 0% Secox) was -0,69 and the “Normalized Change of RPA (NC)” value ([4]; 5% Secox) was -0,64.
For O=C(O)c1cc(SSc2ccccc2)cc(SSc2ccccc2)c1 [(1)(4)2], the “NC of RPA” value [3] was 45,89.
For N[C@@H](CSSC[C@H](N)C(=O)O)C(=O)O [Cysox, cystine], the DCL equilibration time [5] was 3 days.
In the case of O=C(O)c1cc2cc(c1)SSc1cc(cc(C(=O)O)c1)SSc1cc(cc(C(=O)O)c1)SS2 [(1)3], the “NC of RPA” value (glucose oxidase (GOx)) is reported as -0,21, the “Normalized Change of RPA (NC)” value ([1]; 0% Secox) is reported as -0,65 and the “Normalized Change of RPA (NC)” value ([1]; 5% Secox) is reported as -0,66. For the same compound, the “Normalized Change of RPA (NC)” value ([2]; 0% Secox) was -0,42, the “Normalized Change of RPA (NC)” value ([2]; 5% Secox) was -0,44 and the “NC of RPA” value [3] was -0,19. For the same compound, the “Normalized Change of RPA (NC)” value ([4]; 0% Secox) was -0,70 and the “Normalized Change of RPA (NC)” value ([4]; 5% Secox) was -0,68.
For O=C(O)c1cccc(SSc2cccc(C(=O)O)c2)c1 [(3)2, 3,3'-disulfanediyldibenzoic acid], the “NC of RPA” value (glucose oxidase (GOx)) was -0,35, the “Normalized Change of RPA (NC)” value ([1]; 0% Secox) was 0,49 and the “Normalized Change of RPA (NC)” value ([1]; 5% Secox) was 0,49. For the same compound, the “Normalized Change of RPA (NC)” value ([2]; 0% Secox) was 0,51, the “Normalized Change of RPA (NC)” value ([2]; 5% Secox) was 0,51 and the “NC of RPA” value [3] was -0,64. For the same compound, the “Normalized Change of RPA (NC)” value ([4]; 0% Secox) was 0,56, the “Normalized Change of RPA (NC)” value ([4]; 5% Secox) was 0,49 and the “Normalized Change of RPA (NC)” value ([6]; Secox) was 0.1. The “Normalized Change of RPA (NC)” value ([6]; no Secox) was 0.1.
For O=C(O)c1cccc(SSc2cc(C(=O)O)c(SSc3cccc(C(=O)O)c3)cc2C(=O)O)c1 [(2)(3)2], the “NC of RPA” value (glucose oxidase (GOx)) was 0,72, the “Normalized Change of RPA (NC)” value ([1]; 0% Secox) was -0,26 and the “Normalized Change of RPA (NC)” value ([1]; 5% Secox) was -0,28. For the same compound, the “Normalized Change of RPA (NC)” value ([2]; 0% Secox) was -0,11, the “Normalized Change of RPA (NC)” value ([2]; 5% Secox) was -0,19 and the “NC of RPA” value [3] was -1,00. For the same compound, the “Normalized Change of RPA (NC)” value ([4]; 0% Secox) was 2,41 and the “Normalized Change of RPA (NC)” value ([4]; 5% Secox) was 2,37.
For O=C(O)c1cccc(SSc2cc(SSc3cc(SSc4cccc(C(=O)O)c4)cc(C(=O)O)c3)cc(C(=O)O)c2)c1 [(1)2(3)2], the “NC of RPA” value (glucose oxidase (GOx)) was -0,36, the “Normalized Change of RPA (NC)” value ([1]; 0% Secox) was 0,46 and the “Normalized Change of RPA (NC)” value ([1]; 5% Secox) was 0,38. For the same compound, the “Normalized Change of RPA (NC)” value ([2]; 0% Secox) was 0,34, the “Normalized Change of RPA (NC)” value ([2]; 5% Secox) was 0,27 and the “NC of RPA” value [3] was 0,63. The “Normalized Change of RPA (NC)” value ([4]; 0% Secox) was -0,06 and the “Normalized Change of RPA (NC)” value ([4]; 5% Secox) was -0,06.
For N[C@@H](CS)C(=O)O [Cys, cysteine], the pKa ([7]; Cys thiol group) is listed as 8.22 and ~ 8.22.
For O=C(O)c1cc2cc(c1)SSc1cc(cc(C(=O)O)c1)SSc1cc(cc(C(=O)O)c1)SSc1cc(cc(C(=O)O)c1)SS2 [(1)4], the “NC of RPA” value (glucose oxidase (GOx)) was -0,86, the “Normalized Change of RPA (NC)” value ([1]; 0% Secox) was -0,14 and the “Normalized Change of RPA (NC)” value ([1]; 5% Secox) was -0,12. For the same compound, the “Normalized Change of RPA (NC)” value ([2]; 0% Secox) was -0,47, the “Normalized Change of RPA (NC)” value ([2]; 5% Secox) was -0,43 and the “NC of RPA” value [3] was 0,14. For the same compound, the “Normalized Change of RPA (NC)” value ([4]; 0% Secox) was -0,84 and the “Normalized Change of RPA (NC)” value ([4]; 5% Secox) was -0,88.
With O=C(O)c1cc(SSc2ccccc2)c(C(=O)O)cc1SSc1ccccc1 [(2)(4)2] the “NC of RPA” value (glucose oxidase (GOx)) was 0,19, the “Normalized Change of RPA (NC)” value ([1]; 0% Secox) was 0,08 and the “Normalized Change of RPA (NC)” value ([1]; 5% Secox) was 0,08. For the same compound, the “Normalized Change of RPA (NC)” value ([2]; 0% Secox) was 0,06, the “Normalized Change of RPA (NC)” value ([2]; 5% Secox) was 0,04 and the “NC of RPA” value [3] was 1,30. For the same compound, the “Normalized Change of RPA (NC)” value ([4]; 0% Secox) was -0,16 and the “Normalized Change of RPA (NC)” value ([4]; 5% Secox) was -0,18.
In the case of O=C(O)c1cc(SSc2cc(C(=O)O)c(SSc3ccccc3)cc2C(=O)O)c(C(=O)O)cc1SSc1ccccc1 [(2)2(4)2], the “NC of RPA” value (glucose oxidase (GOx)) is reported as -1,00, the “Normalized Change of RPA (NC)” value ([1]; 0% Secox) is reported as -1,00 and the “Normalized Change of RPA (NC)” value ([1]; 5% Secox) is reported as -1,00. For the same compound, the “Normalized Change of RPA (NC)” value ([2]; 0% Secox) was -1,00, the “Normalized Change of RPA (NC)” value ([2]; 5% Secox) was -1,00 and the “NC of RPA” value [3] was 0,31. The “Normalized Change of RPA (NC)” value ([4]; 0% Secox) was 0,13 and the “Normalized Change of RPA (NC)” value ([4]; 5% Secox) was 0,11.
In the case of O=C(O)c1cccc(SSc2cc(SSc3cccc(C(=O)O)c3)cc(C(=O)O)c2)c1 [(1)(3)2], the “NC of RPA” value (glucose oxidase (GOx)) is reported as -0,46, the “Normalized Change of RPA (NC)” value ([1]; 0% Secox) is reported as 1,19 and the “Normalized Change of RPA (NC)” value ([1]; 5% Secox) is reported as 1,25. The “Normalized Change of RPA (NC)” value ([2]; 0% Secox) was 0,83, the “Normalized Change of RPA (NC)” value ([2]; 5% Secox) was 0,86 and the “NC of RPA” value [3] was -0,75. The “Normalized Change of RPA (NC)” value ([4]; 0% Secox) was 1,24 and the “Normalized Change of RPA (NC)” value ([4]; 5% Secox) was 1,23.
With O=C(O)c1cccc(SSc2cc(C(=O)O)c(SSc3ccccc3)cc2C(=O)O)c1 [(2)(3)(4)] the “NC of RPA” value (glucose oxidase (GOx)) was -0,32, the “Normalized Change of RPA (NC)” value ([1]; 0% Secox) was -0,75 and the “Normalized Change of RPA (NC)” value ([1]; 5% Secox) was -0,74. For the same compound, the “Normalized Change of RPA (NC)” value ([2]; 0% Secox) was -0,64, the “Normalized Change of RPA (NC)” value ([2]; 5% Secox) was -0,65 and the “NC of RPA” value [3] was 0,95. For the same compound, the “Normalized Change of RPA (NC)” value ([4]; 0% Secox) was -0,12 and the “Normalized Change of RPA (NC)” value ([4]; 5% Secox) was -0,12.
For O=C(O)c1cccc(SSc2cc(SSc3ccccc3)cc(C(=O)O)c2)c1 [(3)(1)(4)], the “NC of RPA” value (glucose oxidase (GOx)) was 0,54, the “Normalized Change of RPA (NC)” value ([1]; 0% Secox) was -0,51 and the “Normalized Change of RPA (NC)” value ([1]; 5% Secox) was -0,51. For the same compound, the “Normalized Change of RPA (NC)” value ([2]; 0% Secox) was -1,00, the “Normalized Change of RPA (NC)” value ([2]; 5% Secox) was -1,00 and the “NC of RPA” value [3] was 2,28. The “Normalized Change of RPA (NC)” value ([4]; 0% Secox) was -0,82 and the “Normalized Change of RPA (NC)” value ([4]; 5% Secox) was -0,76.
For N[C@@H](C[SeH])C(=O)O [Sec, selenocysteine], the pKa ([7]; Sec) is listed as 5.43 and ~ 5.43.
In the case of O=C(O)c1cc(SSc2ccccc2)cc(SSc2cc(C(=O)O)c(SSc3ccccc3)cc2C(=O)O)c1 [(1)(2)(4)2], the “NC of RPA” value (glucose oxidase (GOx)) is reported as -1,00, the “Normalized Change of RPA (NC)” value ([1]; 0% Secox) is reported as -1,00 and the “Normalized Change of RPA (NC)” value ([1]; 5% Secox) is reported as -1,00. For the same compound, the “Normalized Change of RPA (NC)” value ([2]; 0% Secox) was -1,00, the “Normalized Change of RPA (NC)” value ([2]; 5% Secox) was -1,00 and the “NC of RPA” value [3] was 2,84. For the same compound, the “Normalized Change of RPA (NC)” value ([4]; 0% Secox) was -1,00 and the “Normalized Change of RPA (NC)” value ([4]; 5% Secox) was -1,00.
